Holding throughout (assay): p-nitrophenol release at […] nm, Michaelis-Menten fit
Holding throughout (assay type): biochemical, uncultured bacterium (alpaca faeces metagenome)
What all share (conditions): 50 mM potassium phosphate pH 7.5, 20 °C

Test [1] has as its system Fuc25D.
The subject of test [2] is Fuc25E.
The test system of test [3] is Fuc25C.
In test [4] the test system is Fuc25A.

As a reminder, the Km is the concentration of substrate that gives half-maximal velocity. Take `C[C@@H]1O[C@@H](Oc2ccc([N+](=O)[O-])cc2)[C@@H](O)[C@H](O)[C@@H]1O` [pNP-αFuc]: the Michaelis-Menten constant (Km) in test [1] was 79.7 ± 8.6 µM; in test [2], 85.1 ± 12.9 µM; in test [3], 1400 ± 374 µM; in test [4], 334 ± 21.4 µM.

The record behind these values is paper PMC10815079, “α-L-Fucosidases from an Alpaca Faeces Metagenome: Characterisation of Hydrolytic and Transfucosylation Potential” (International Journal of Molecular Sciences, 2024).
